Source: paper PMC11721856, “Searching for novel MDM2/MDMX dual inhibitors through a drug repurposing approach” (Journal of Enzyme Inhibition and Medicinal Chemistry, 2023)

Experiments:
MDMX = molecular target: T1, MDMX (Homo sapiens, UniProt O15151); experiment: competitive fluorescence polarisation, % inhibition at […]; conditions: read-out: Protein binding inhibition at 1 μM(%) ^a / MDMX
T1 construct: gene MDM4; residues 1–110
T1 sequence (O15151 1-110): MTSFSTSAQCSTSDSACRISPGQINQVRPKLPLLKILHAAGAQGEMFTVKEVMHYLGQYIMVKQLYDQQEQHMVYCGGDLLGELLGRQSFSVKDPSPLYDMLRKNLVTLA

MDM2 = molecular target: T2, MDM2 (Homo sapiens, UniProt Q00987); experiment: as above; conditions: read-out: Protein binding inhibition at 1 μM(%) ^a / MDM2
T2 construct: residues 1–110

inhibition at 1 µM (MDMX) [%] | inhibition at 1 µM (MDM2) [%] | SMILES
57.9 ± 6.1 | 72.8 ± 5.6 | COC(=C1C(=O)Nc2cc(Cl)ccc21)c1ccccc1 [H3, 6-chloro-3-(methoxy(phenyl)methylene) indolin-2-one]
– | 56.8 ± 1.9 | COC(=C1C(=O)Nc2cc(F)ccc21)c1ccccc1 [H5, 6-fluoro-3-(methoxy(phenyl)methylene) indolin-2-one]
– | 50.3 ± 2.5 | COC(=C1C(=O)Nc2cc(Cl)c(F)cc21)c1ccccc1 [H6, 6-chloro-5-fluoro-3-(methoxy(phenyl)methylene) indolin-2-one]
– | 52.6 ± 2.1 | O=C1Nc2cc(Cl)ccc2C1=C(c1ccccc1)N1CCCC1 [H7, 6-chloro-3-(phenyl(pyrrolidin-1-yl)methylene)indolin-2-one]
